# Entries after “also recorded” stand apart in the source; their conditions may differ. In the oligonucleotide strings, read from the 5' end, every base follows the letter of its sugar. An asterisk marks phosphorothioate; unmarked linkages are phosphodiester. Other units and linkages are bracketed, terminal groups are in braces. A string of capitals states the bases alone. d = 2'-deoxy (DNA)
# Tested on: CD4+ Treg cells (Treg102, Treg164)
# Assay: Proliferation assay without DCs: Treg suppression of naive CD4+ T cell proliferation, anti-CD3-coated plates
# Assay type: cell-based, human
# Conditions: absence of DCs; anti-CD3-coated plates; oligonucleotides 3 ug/ml in medium
# Excerpt: Establishing Treg cell lines and purifying natural CD4^+ CD25^+ Treg cells CD4^+ Treg clones were established from CD4^+ tumor-infiltrating lymphocytes (TIL102 and TIL164) and maintained in RPMI 1640 medium containing 10% human AB serum and recombinant IL-2 (300 IU/ml) using methods well known in the art (See, e.g., H. Y. Wang et al., Immunity 20, 107-118 (2004)). Treg clones derived from TIL102 or TIL164 cells were pooled and designated Treg102 or Treg164. Naturally occurring CD4^+ CD25^+ Treg cells were obtained by sorting CD4^+ T cell populations from fresh PBMCs after staining with anti-CD4 and anti-CD25 antibodies. To obtain optimal expansion, the OKT3 expansion method was performed using methods well known in the art (See, e.g., H. Y. Wang et al., Immunity 20, 107-118 (2004)). T cell clones were maintained at a low IL-2 concentration (300 IU/ml). Melanoma cell lines and EBV-transformed B-cell lines used in this study were cultured in RPMI 1640 medium containing 10% FCS. Human embryonic kidney (HEK) 293 and Epstein-Barr virus (EBV)-transformed B cell lines were maintained in RPMI 1640 with 10% fetal calf serum (FCS).
# B. Proliferation assay without DCs: 1×10^5 näive CD4 T cells were cultured with regulatory T cells at different ratios (1: 0.2, 1:0.1 and 1:0.05) in anti-CD3 mAb-coated (2 ug/ml) 96-well plates in the presence or absence of the following TLR ligands or cytokines: CpG-A (3 ug/ml), CpG-B (3 ug/ml), LPS (100 ng/ml), TNF.-α (20 ng/ml), IFN-α (100 ng/ml), or IL-6 (100 ng/ml). After 56 h of culture, [3H]thymidine was added at a final concentration of 1 uCi/well, followed by an additional 16 h of culture. The incorporation of [^3H]thymidine was measured with a liquid scintillation counter.
# Näive CD4^+ T cell proliferation experiments were performed similar to those in FIG. 1A, but in the absence of DCs. […] The reversal effect of CpG-A (SEQ ID NO: 1) contrasts with the failure of CpG-B (SEQ ID NO: 2), LPS, TNF-α, IL-6 or IFN-α to block the suppressive activity of CD4^+ Treg cells against naive CD4^+ T cells (FIG. 1B).
# To further define the CpG-A (SEQ ID NO: 1) sequences responsible for the observed reversal effect, CpG-NG (SEQ ID NO: 5) and Poly-G10 (SEQ ID NO: 6), were tested for their ability to reverse the suppressive function of Treg cells. Naive CD4^+ T cells were mixed with CD4^+ Treg cells in anti-CD3 antibody-coated 96-wells with 200 μl of medium containing CpG-NG (SEQ ID NO: 5), CpG-A (SEQ ID NO: 1) or Poly-G10 (SEQ ID NO: 6). The proliferation assay was conducted as described in FIG. 1. […] For the experiments shown in FIG. 2B, naive CD4^+ T cells were mixed with CD4^+ Treg cells in anti-CD3 antibody-coated 96-wells with 200 μl of medium containing Poly-A10 (SEQ ID NO: 7), Poly-T10 (SEQ ID NO: 9) or Poly-C10 (SEQ ID NO: 8), while the Poly-G10 (SEQ ID NO: 6) oligonucleotides served as a positive control.
# A series of oligonucleotides with decreasing numbers of guanosine nucleosides was constructed to determine the minimal number required for the reversal effect. For the experiments in FIG. 2C, CD4^+ T cells were mixed with CD4^+ Treg cells in anti-CD3 antibody-coated 96-wells containing medium with protected phosphorothioate linked guanosine nucleoside containing oligonucleotides of various lengths, while the unprotected five guanosines (SEQ ID NO: 10) served as a control.
row,Compound,reversal of Treg cell-mediated suppression of naive CD4+ T cell proliferation
1,"CpG-B: CpG-B oligonucleotide, ligand for TLR9 (DNA GGGGGAGCATGCTGCGGGGG; listed as DNA, chemistry not given here)",failure
2,"CpG-NG: oligonucleotide derived from CpG-A, tested to define the sequences responsible for reversal (DNA AAAAGACGATCGTCAAAAAA; listed as DNA, chemistry not given here)",Treg suppression reversal was lost
3,G5: unprotected five guanosines with a regular phosphodiester backbone (DNA GGGGG; unmodified DNA),failed to reverse the suppressive activity of Treg cells
4,Poly-C10: Poly-C oligonucleotide with the same protected phosphorothioate backbone (DNA dC*dC*dC*dC*dC*dC*dC*dC*dC*dC),failed to reverse the suppressive function of Treg cells; also recorded: lacked the ability to reverse the suppressive activity of Treg cells
5,T4G1: a single guanosine plus other nucleotides with protected phosphorothioate linkages (DNA dT*dT*dG*dT*dT),found to reverse the suppressive activity of Treg cells
6,Poly-A10: Poly-A oligonucleotide with the same protected phosphorothioate backbone (DNA dA*dA*dA*dA*dA*dA*dA*dA*dA*dA),failed to reverse the suppressive function of Treg cells; also recorded: lacked the ability to reverse the suppressive activity of Treg cells
7,TNF-α,failure
8,A4G1: a single guanosine plus other nucleotides with protected phosphorothioate linkages (DNA dA*dA*dG*dA*dA),found to reverse the suppressive activity of Treg cells
9,C4G1: a single guanosine plus other nucleotides with protected phosphorothioate linkages (DNA dC*dC*dG*dC*dC),found to reverse the suppressive activity of Treg cells

# Tested on: antigen-specific Treg102 and Treg164 cells
# Assay: TLR ligand assays: reversal of Treg suppression of naive CD4+ T cell proliferation
# Assay type: cell-based, human
# Conditions: Treg102, Treg164 or naturally occurring CD4+CD25+ Treg cells (FIG. 4A-B)
# Experimental: Näive CD4 T+cells were purified from PBMCs by using microbeads (Miltenvi Biotec). Näive CD4^+ T cells ([…]) were cultured with regulatory T cells at a ratio of 10:1 in OKT3 (2 ug/ml)-coated, U bottomed 96-well plates containing the following ligands: LPS (100 ng/ml), imiquimod (10 μg/ml), loxoribine (500 μM), poly(I:C) (25 μg/ml), ssRNA40/LyoVec (3 μg/ml), ssRNA33/LyoVec (3 μg/ml), pam3CSK4 (200 ng/ml) and flagellin (10 μg/ml) were purchased from Invivogene (San Diego, Calif.), while CpG-A (3 μg/ml), CpG-B (3 μg/ml) and Poly-G oligonucleotides (3 μg/ml) were synthesized in Integrated DNA Technologies, Inc (Coralville, Iowa). Functional assays were identical to those described above.
# If the TLR8-MyD88-IRAK4 signaling pathway is necessary and sufficient for direct reversal of the suppressive function of Treg cells, it should be possible to produce that effect with natural ligands for human TLR8. For FIG. 4A-B, naive CD4^+ T cells were mixed with Treg102, Treg164 or naturally occurring CD4^+ CD25^+ Treg cells in anti-CD3 antibody-coated wells in the presence of different TLR ligands. Data are presented as means±SD and represent results from three independent experiments.
row,Compound,restoration of proliferation of naive CD4+ T cells in the presence of Treg cells
1,"CpG-B: CpG-B oligonucleotide, ligand for TLR9 (DNA GGGGGAGCATGCTGCGGGGG; listed as DNA, chemistry not given here)",failed to restore the proliferation of naive CD4^+ T cells
2,C=CCn1c(=O)n([C@@H]2O[C@H](CO)[C@@H](O)[C@H]2O)c2nc(N)[nH]c(=O)c21 [loxoribine],failed to restore the proliferation of naive CD4^+ T cells
3,flagellin,failed to restore the proliferation of naive CD4^+ T cells
4,poly(I:C),failed to restore the proliferation of naive CD4^+ T cells

# Tested on: CD4+ Treg cells
# Assay: Pretreatment of Treg cells, then proliferation assay with naive CD4+ T cells (without DCs)
# Assay type: cell-based, human
# Conditions: Treg cells pretreated 3 days, washed, then mixed with naive CD4+ T cells
# Experimental: C. Pretreatment of Treg cells: 1×10^6 Treg cells were cultured in medium containing CpG-A (3 ug/ml), CpG-B (3 ug/ml), LPS (100 ng/ml), TNF.-α (20 ng/ml), IFN-α (100 ng/ml) or IL-6 (100 ng/ml) for 3 days. After three washes, the pretreated Treg cells were cultured with näive CD4^+ T cells in anti-CD3 mAb-coated plates (without DCs) to determine their suppressive function. After 56 h of culture, [3H]thymidine was added at a final concentration of 1 uCi/well, and cultured for an additional 16 h. The incorporation of [^3H]thymidine was measured with a liquid scintillation counter.
# To exclude the possibility that the purified naive CD4^+ T cells might have been contaminated with a small number of monocytes or DCs, cultured CD4^+ Treg cells (100% purity) were pretreated with CpG-A (SEQ ID NO: 1) for 3 days. After three washes, the pretreated CD4^+ Treg cells were mixed with naive CD4^+ T cells in anti-CD3 antibody-coated plates to evaluate their ability to suppress the proliferation of naive CD4^+ T cells.
# To determine whether the CpG motif in CpG A confers the ability to reverse the suppressive function of CD4^+ Treg cells, CD4^+ Treg cell lines were pretreated for 3 days with CpG-A (SEQ ID NO: 1), non-CpG-A (CG changed to GC in CpG-A; SEQ ID NO: 3), CpG B (SEQ ID NO: 2) or non-CpG-B (CG changed to GC in CpG-B; SEQ ID NO: 4), and used them in proliferation assays following extensive washes.
# Treg cells were pretreated with Poly-G2 (SEQ ID NO: 15) in different concentrations of chloroquine to examine whether acidification is required for the function of guanosine containing oligonucleotides. After extensive washes, the pretreated Treg cells were used for functional assays.
row,Compound,reversal of suppressive function of CD4+ Treg cells after pretreatment
1,"CpG-B: CpG-B oligonucleotide, ligand for TLR9 (DNA GGGGGAGCATGCTGCGGGGG; listed as DNA, chemistry not given here)",lacked any discernible effect
2,"non-CpG-B: CG changed to GC in CpG-B (DNA TGCTGCTTTTGTGCTTTTGTGCTT; listed as DNA, chemistry not given here)",lacked any discernible effect

# Same assay, conditions: pretreatment together with chloroquine
row,Compound,reversal effect with Treg cells pretreated in different concentrations of chloroquine
1,"Poly-G2: guanosine containing oligonucleotide (DNA AAGGA; listed as DNA, chemistry not given here)",decreased with increasing concentrations of chloroquine

# Source: patent US20090209620A1, “Direct Reversal Of The Suppressive Function Of CD4+Regulatory T Cells Via Toll-Like Receptor 8 Signaling” (priority 2005, published 2009)
